The source of these data is patent US7579334B2, “Compounds with anti-inflammatory activity” (GlaxoSmithKline Istrazivacki Centar Zagreb, priority 2003, dated 2009).

For data set [1], the target named is T1, alpha isoform of human glucocorticoid receptor (Homo sapiens, UniProt P04150).
T1 construct: expressed in transfected cells; host or cells: COS-1 cells, transient transfection with pcDNA3.1 Hygro(+) carrying the GR alpha cDNA
T1 sequence (P04150 1-777): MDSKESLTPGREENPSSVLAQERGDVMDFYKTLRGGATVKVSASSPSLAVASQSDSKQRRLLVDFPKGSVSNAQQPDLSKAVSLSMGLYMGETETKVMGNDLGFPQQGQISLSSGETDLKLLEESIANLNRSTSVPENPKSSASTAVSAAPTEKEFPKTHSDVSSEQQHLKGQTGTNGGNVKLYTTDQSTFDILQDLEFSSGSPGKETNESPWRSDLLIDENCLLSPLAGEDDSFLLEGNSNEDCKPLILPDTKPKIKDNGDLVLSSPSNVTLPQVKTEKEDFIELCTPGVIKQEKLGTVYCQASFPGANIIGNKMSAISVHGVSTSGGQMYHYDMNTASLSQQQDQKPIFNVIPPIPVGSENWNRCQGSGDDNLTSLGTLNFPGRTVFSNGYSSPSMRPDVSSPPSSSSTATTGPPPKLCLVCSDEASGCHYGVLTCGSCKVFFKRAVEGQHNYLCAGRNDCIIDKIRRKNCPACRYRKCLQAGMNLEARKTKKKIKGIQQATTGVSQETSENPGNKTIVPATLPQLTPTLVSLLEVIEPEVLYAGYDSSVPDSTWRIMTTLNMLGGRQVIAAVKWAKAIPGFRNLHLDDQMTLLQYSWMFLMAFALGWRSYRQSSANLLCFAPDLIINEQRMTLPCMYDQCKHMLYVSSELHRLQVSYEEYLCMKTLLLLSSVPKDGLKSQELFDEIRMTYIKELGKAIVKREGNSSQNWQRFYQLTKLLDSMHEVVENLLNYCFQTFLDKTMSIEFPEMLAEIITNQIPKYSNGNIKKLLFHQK
Kind of data set: Assay of binding to human glucocorticoid receptor ([3H]dexamethasone displacement in transfected COS-1 cells). The settings on record: 24 nM [3H]dexamethazone, COS-1 cells transfected with human GR alpha, 90 minutes at 37° C. The protocol:
Assay of Binding to Human Glucocorticoid Receptor The gene for the alpha isoform of human glucocorticoid receptor was cloned by reverse polymerase chain reaction. The total RN A was isolated from human peripheral blood lymphocytes according to the instructions of the manufacturer (Qiagen), transcripted into cDNA with AMV reverse transcriptase (Roche) and the gene was multiplied by specific primers 1) [NT] ID NO:1] and 2) [NT] NO:1]. […] The medium was removed and 1 μg of DNA, 7 μl of PLUS reagent and 2 μl of Lipofectamin (Life Technologies) in 500 μl of DMEM were added per well. The cells were incubated at 37° C. in an atmosphere with 5% CO2 and after 5 hours the same volume of 20% FBS/DMEM was added. After 24 hours, the medium was completely changed. 48 hours after transfection, the test compounds in different concentrations and 24 nM [^3H]dexamethazone (Pharmacia) in DMEM medium were added. The cells were incubated for 90 minutes at 37° C. in an atmosphere with 5% CO2, washed three times with PBS buffer (Sigma) cooled to 4° C. (pH=7.4), and then lysed in Tris buffer (pH=8.0) (Sigma) with 0.2% of SDS (Sigma). After the addition of UltimaGold XR (Packard) scintillation liquid, the residual radioactivity was read in a Tricarb (Packard) β-scintillation counter.

The test system of another data set is Male Balb/C mice. Kind of data set: Model of lung eosinophilia in mice. In kind it is in vivo. As to conditions: OVA-sensitised and challenged mice, daily i.n. or i.p.; t-test, p<0.05. The protocol:
Model of Lung Eosinophilia in Mice Male Balb/C mice with a body weight of 20-25 g were randomly divided into groups, and sensitised by an i.p. injection of ovalbumin (OVA, Sigma) on day zero and day fourteen. On the twentieth day, the mice were subjected to a challenge test by i.n. (intranasal) application of OVA (positive control or test groups) or PBS (negative control). 48 hours after i.n. application of OVA, the animals were anaesthetized and the lungs were rinsed with 1 mL of PBS. The cells were separated on Cytospin 3 cytocentrifuge (Shandon). The cells were stained in Diff-Quick (Dade) and the percentage of eosinophils was determined by differential counting of at least 100 cells. Fluticasone (GlaxoWellcome) and beclomethasone ([…].) were used as standard substances, with positive and negative control. The compounds were administered daily i.n. or i.p. in different doses 2 days before the challenge test and up to the completion of the test.

In the next data set the test system is Male Wistar rats. Kind of data set: Cold stress model. In kind it is in vivo. As to conditions: standard 1 mg/kg once daily over three days, cold stress at 4° C. for 1 hour; P<0.05, T-test. The protocol:
Male Wistar rats with a body weight of 200-250 g (our own breeding) were randomly divided into groups. The carrier (lactose) in the volume of 0.5 mL/100 g s.c. was applied to the negative and positive control group. Test substances and the standard were applied once daily over three days in the dose of 2 mg/kg in the volume of 0.5 mL/100 g of body weight. The standard was applied in the dose of 1 mg/kg, in the volume of 0.5 mL/100 g of body weight.
On day three, 2 hours after the last treatment, all animals, except for the negative control group, were subjected to cold stress at 4° C. for 1 hour. After the stress, the animals were anaesthetized with thiopental (Pliva d.d.) and blood from all animals was drawn on K2 EDTA into test tubes. Plasma samples were frozen at −70° C. Corticosterone levels were determined by fluorimetric method according to Silber. Thymuses were removed from animals and weighed, and their weights were compared with the negative and positive control.

With `CC[C@H]1OC(=O)[C@H](C)[C@@H](O)[C@H](C)[C@@H](O)[C@](C)(O)C[C@@H](C)CN(CCCNC(=O)[C@H]2[C@H](C)CC3C4CCC5=CC(=O)C=C[C@]5(C)[C@@]4(F)[C@@H](O)C[C@@]32C)[C@H](C)[C@@H](O)[C@]1(C)O` (stereo partly drawn) [Compound 2], in data set [1], the “affinity for glucocorticoid receptor (displacement of radioactive dexamethasone)” value was “have the affinity for glucocorticoid receptor”. Also, the “number of eosinophils in the lung rinse with respect to positive control” value with Male Balb/C mice is reported as “statistically significantly reduced”.

Take `CCCC1O[C@@H]2C[C@H]3[C@@H]4CCC5=CC(=O)C=C[C@]5(C)[C@H]4[C@@H](O)C[C@]3(C)[C@]2(C(=O)CO)O1` (stereo partly drawn) [budesonide]: in the data set on Male Wistar rats, the corticosterone plasma levels entry is “statistically significantly reduced” and the “weight of the thymus” value was “reduced the weight of the thymus”.

On to `C[C@@H]1C[C@H]2[C@@H]3C[C@H](F)C4=CC(=O)C=C[C@]4(C)[C@@]3(F)[C@@H](O)C[C@]2(C)[C@@]1(O)C(=O)SCF` [fluticasone], for which, in the data set on Male Wistar rats, the corticosterone plasma levels result was “statistically significantly reduced” and the “weight of the thymus” value was “reduced the weight of the thymus”.
